The values below come from US9321781B2, “Topoisomerase inhibitors” (Rutgers, The State University of New Jersey, priority 2009, dated 2016).

Data set [1] concerns P388/CPT45 (CPT-resistant TOP1-deficient variant of P388). The data set can be described thus: MTT cytotoxicity assay (Test B), P388/CPT45. The data set is classed as cell-based. To be noted: Mus musculus, P388CPT45, 96 h, P388/CPT45 cells, continuous exposure four days. As to the method:
(§1) Test B. Cytotoxic assays (cancer cell lines and efflux transporter cell lines)
(§2) The cytotoxicity was determined using the MTT-microtiter plate tetrazolinium cytotoxicity assay (MTA). The human lymphoblast RPMI 8402 and its camptothecin-resistant variant cell line, CPT-K5 was provided by Dr. Toshiwo Andoh (Aichi Cancer Center Research Institute, Nagoya, Japan). The P388 mouse leukemia cell line and its CPT-resistant TOP1-deficient variant P388/CPT45 were obtained from Michael R. Mattern and Randal K. Johnson (GlaxoSmithKline, King of Prussia, Pa.). The KB3-1 cell line and its multidrug-resistant variant KBV-1 were obtained from K.V. Chin (The Cancer Institute of New Jersey, New Brunswick, N.J.). The KBH5.0 cell line as noted previously was derived from KB3-1 by stepwise selection against Hoechst 33342. The cytotoxicity assay was performed using 96-well microtiter plates. Cells were grown in suspension at 37° C. in 5% CO2 and maintained by regular passage in RPMI medium supplemented with 10% heat inactivated fetal bovine serum, L-glutamine (2 mM), penicillin (100 U/mL), and Streptomycin (0.1 mg/mL). For determination of IC50, cells were exposed continuously for four days to varying concentrations of drug, and MTT assays were performed at the end of the fourth day. […] All assays were performed at least twice in six replicate wells.

The nature of data set [2]: MTT cytotoxicity assay, KB3-1 parent cell line. The class given is cell-based. The following applies: human, KB3-1 cells (parent cell line), KB3-1 parent cells, continuous exposure four days. As to the method:
as §1, §2
(§3) The cytotoxicity of the representative compounds of the invention were also tested against cell line KB3-1 (parent cell line), KBV-1 (a variant that overexpresses efflux transporter MDR1) and KBH5.0 (a variant that overexpresses BCRP). Differences in the relative cytotoxicity between the parent and variant cell lines may be indicative of a compound that is a substrate for an efflux transporter. […] Accordingly, compounds of the invention may be useful to treat tumors that are resistant to other anticancer agents, including anticancer agents that are susceptible to efflux by BCRP (e.g. anthracyclines, mitoxantrone, topotecan, irinotecan, bisanthrone, doxorubicin, daunorubicin, and epirubin.
On the technique in general: Formazan colour is commonly taken as a measure of viable cells.

In data set [3] the test system is human lymphoblast RPMI 8402. The experiment in a line: MTT cytotoxicity assay (Test B), RPMI 8402. The class given is cell-based. The following applies: RPMI 8402 cells, continuous exposure four days, read-out: Cytotoxicity (IC50 values (μM) RPMI8402). As to the method: as §1, §2
Data set [4] relates to CPT-K5 (camptothecin-resistant variant cell line of RPMI 8402). The experiment in a line: MTT cytotoxicity assay (Test B), CPT-K5. The class given is cell-based, human. The following applies: CPT-K5 cells, continuous exposure four days. As to the method:
as §1, §2

Another data set deals with MDR1. The data set can be described thus: MTT cytotoxicity assay, KBV-1 efflux transporter cell line. The class given is cell-based. The following applies: human, KBV-1 cells (KB3-1 variant that overexpresses MDR1), KBV-1 cells (MDR1 overexpressing), continuous exposure four days. As to the method: as §1, §2, §3
The test system of data set [5] is P388 mouse leukemia cell line. The experiment in a line: MTT cytotoxicity assay (Test B), P388. The class given is cell-based. To be noted: 96 h, P388 cells, continuous exposure four days. As to the method: as §1, §2
A further data set relates to BCRP. The data set can be described thus: MTT cytotoxicity assay, KBH5.0 efflux transporter cell line. The data set is classed as cell-based. The following applies: human, KBH5.0 cells (KB3-1 variant that overexpresses BCRP); KBH5.0 cells (BCRP overexpressing), continuous exposure four days, MTT. As to the method:
as §1, §2, §3

The subject of data set [6] is KBH5.0 (a variant that overexpresses BCRP). Described as above. The following applies: inferred from relative cytotoxicity KB3-1 vs KBH5.0. The data set is classed as cell-based. As to the method:
as §1, §2, §3

The structures appear in SMILES notation. Where two headings read alike, the source gives them in different places.

Consider `COc1cc2c(cc1OC(C)=O)c(=O)n(CCN(C)C)c1c3cc4c(cc3ncc21)OCO4` [Example 3, 5-(2-(dimethylamino)ethyl)-9-methoxy-2,3-methylenedioxy-6-oxo-5,6-dihydrodibenzo[c,h][1,6]naphthyridin-8-yl acetate], for which the IC50 – broadly, the concentration at which inhibition is half-maximal – in data set [1] is 0.3 µM; in data set [3] (Homo sapiens, RPMI 8402, 96 h), 0.009 µM; in data set [4] (Homo sapiens, CPT-K5, 96 h) it was 0.7 µM; in data set [5], 0.004 µM. Further, the IC50 at 4 days in data set [2] is 0.007 µM; with MDR1, 0.06 µM; with BCRP, 0.025 µM.

On to `COc1cc2c(cc1OC(=O)CCC1CCCC1)c(=O)n(CCN(C)C)c1c3cc4c(cc3ncc21)OCO4` [Example 5, 5-(2-(dimethylamino)ethyl)-9-methoxy-2,3-methylenedioxy-6-oxo-5,6-dihydrodibenzo[c,h][1,6]naphthyridin-8-yl (3-cyclopentyl)propionate], for which the IC50 in data set [1] was determined as 0.07 µM; in data set [3] (Homo sapiens, RPMI 8402, 96 h), 0.003 µM; in data set [4] (Homo sapiens, CPT-K5, 96 h) it was 0.33 µM; in data set [5], 0.002 µM. The values for the half-inhibitory concentration (IC50) at 4 days (in data set [2]; in the data set on MDR1; in the data set with BCRP) were 0.003 µM, 0.058 µM and 0.013 µM, respectively.

As for `COc1cc2c(cc1OC(=O)C(C)(C)C)c(=O)n(CCN(C)C)c1c3cc4c(cc3ncc21)OCO4` [Example 4, 5-(2-(dimethylamino)ethyl)-9-methoxy-2,3-methylenedioxy-6-oxo-5,6-dihydrodibenzo[c,h][1,6]naphthyridin-8-yl pivalate], the IC50 is 0.25 µM in data set [1]; 0.0007 µM in data set [3] (Homo sapiens, RPMI 8402, 96 h); 0.3 µM in data set [4] (Homo sapiens, CPT-K5, 96 h); 0.003 µM in data set [5]. The values for the IC50 at 4 days (in data set [2]; with MDR1; in the data set on BCRP) were 0.002 µM, 0.024 µM and 0.017 µM, respectively.

As to `COc1cc2c(cc1OC(=O)OC(C)(C)C)c(=O)n(CCN(C)C)c1c3cc4c(cc3ncc21)OCO4` [Example 7, tert-butyl 5-(2-(dimethylamino)ethyl)-9-methoxy-2,3-methylenedioxy-6-oxo-5,6-dihydrodibenzo[c,h][1,6]naphthyridin-8-yl carbonate], the IC50 in data set [1] is 0.08 µM; in data set [3] (Homo sapiens, RPMI 8402, 96 h), 0.0005 µM; in data set [4] (Homo sapiens, CPT-K5, 96 h) it was 0.31 µM; in data set [5] it was 0.001 µM. Further, the values for the IC50 at 4 days (in data set [2]; in the data set on MDR1; in the data set on BCRP) were 0.002 µM, 0.004 µM and 0.009 µM, respectively.

With `CCNC(=O)Oc1cc2c(=O)n(CCN(C)C)c3c4cc5c(cc4ncc3c2cc1OC)OCO5` [Example 8, 5-(2-(dimethylamino)ethyl)-9-methoxy-2,3-methylenedioxy-6-oxo-5,6-dihydrodibenzo[c,h][1,6]naphthyridin-8-yl ethylcarbamate], the half-maximal inhibitory concentration (IC50) came to 0.09 µM in data set [1]; 0.003 µM in data set [3] (Homo sapiens, 96 h); 0.5 µM in data set [4] (Homo sapiens, 96 h); 0.003 µM in data set [5]. The half-inhibitory concentration (IC50) at 4 days in data set [2] amounted to 0.004 µM; with MDR1 it was 0.04 µM; in the data set with BCRP, 0.015 µM.

Regarding `COc1cc2c(cc1OC(=O)c1ccccc1)c(=O)n(CCN(C)C)c1c3cc4c(cc3ncc21)OCO4` [Example 1, 5-(2-(dimethylamino)ethyl)-9-methoxy-2,3-methylenedioxy-6-oxo-5,6-dihydrodibenzo[c,h][1,6]naphthyridin-8-yl benzoate], the IC50 stood at 0.12 µM in data set [1]; 0.006 µM in data set [3] (Homo sapiens, RPMI 8402, 96 h); 0.009 µM in data set [3]; 0.55 µM in data set [4]; 0.5 µM in data set [4] (Homo sapiens, CPT-K5, 96 h); 0.002 µM in data set [5]. For the same molecule, the IC50 at 4 days in data set [2] came to 0.002 µM; in the data set on MDR1, 0.06 µM; with BCRP it was 0.025 µM.

For the molecule `COc1cc2c(cc1OC(=O)c1ccccc1C)c(=O)n(CCN(C)C)c1c3cc4c(cc3ncc21)OCO4` [Example 2, 5-(2-(dimethylamino)ethyl)-9-methoxy-2,3-methylenedioxy-6-oxo-5,6-dihydrodibenzo[c,h][1,6]naphthyridin-8-yl 2-methylbenzoate], the IC50 in data set [1] stood at 0.4 µM; in data set [3] (Homo sapiens, RPMI 8402, 96 h) it was 0.07 µM; in data set [3], 0.05 µM; in data set [4] (Homo sapiens, CPT-K5, 96 h), 2 µM; in data set [5] it was 0.03 µM. Besides, the results for the IC50 at 4 days (in data set [2]; with MDR1; in the data set on BCRP) were 0.04 µM, 0.2 µM and 0.04 µM, respectively. Further, in data set [6], the “substrate for efflux transporter BCRP” value is on record as “not a substrate for BCRP”.

Consider `CCOC(=O)Oc1cc2c(=O)n(CCN(C)C)c3c4cc5c(cc4ncc3c2cc1OC)OCO5` [Example 6, 5-(2-(dimethylamino)ethyl)-9-methoxy-2,3-methylenedioxy-6-oxo-5,6-dihydrodibenzo[c,h][1,6]naphthyridin-8-yl ethyl carbonate], for which the half-maximal inhibitory concentration (IC50) was 0.06 µM in data set [1]; 0.0006 µM in data set [3] (Homo sapiens, RPMI 8402, 96 h); 0.25 µM in data set [4] (Homo sapiens, CPT-K5, 96 h); 0.0002 µM in data set [5]. The IC50 at 4 days in data set [2] was 0.001 µM; in the data set on MDR1 it was 0.003 µM; in the data set on BCRP it was 0.008 µM.

As to `COc1cc2c(cc1OC(=O)N(C)C)c(=O)n(CCN(C)C)c1c3cc4c(cc3ncc21)OCO4` [Example 9, 5-(2-(dimethylamino)ethyl)-9-methoxy-2,3-methylenedioxy-6-oxo-5,6-dihydrodibenzo[c,h][1,6]naphthyridin-8-yl dimethylcarbamate], the IC50 in data set [1] is 3.8 µM; in data set [3] (Homo sapiens, 96 h), 1.7 µM; in data set [4] (Homo sapiens, 96 h), more than 10 µM; in data set [5], 1.3 µM. Further, the figures for the concentration for half-maximal inhibition (IC50) at 4 days (in data set [2]; in the data set with MDR1; in the data set with BCRP) were 0.4 µM, 3 µM and 2 µM, respectively.

As to `COc1cc2c(cc1OC(=O)N1CCC(N3CCCCC3)CC1)c(=O)n(CCN(C)C)c1c3cc4c(cc3ncc21)OCO4` [Example 10, 5-(2-(dimethylamino)ethyl)-9-methoxy-2,3-methylenedioxy-6-oxo-5,6-dihydrodibenzo[c,h][1,6]naphthyridin-8-yl 1,4′-bipiperidine-1′-carboxylate], the half-inhibitory concentration (IC50) in data set [1] is 0.5 µM; in data set [3] (Homo sapiens, 96 h), 0.55 µM; in data set [4] (Homo sapiens, 96 h) it was 1.5 µM; in data set [5] it was 0.5 µM. For the same molecule, the half-inhibitory concentration (IC50) at 4 days in data set [2] is 0.75 µM; in the data set on MDR1 it was 1.6 µM; in the data set on BCRP, 1.1 µM.
